PMC9063842, “A GH115 α-glucuronidase structure reveals dimerization-mediated substrate binding and a proton wire potentially important for catalysis” (Acta Crystallographica. Section D, Structural Biology, 2022)

Columns and labels:
[1] = target: T1, wtsAgu115A (uncultured bacterium, UniProt A0ACD6BAS3); test: X-ray crystal structure, crystal soaking; type: binding; settings: 2.65 A; 0.2 M CaCl2, HEPES pH 7.5, 28% PEG 400; five of six xylose units visible; active site at dimer interface; Ca2+ near site; wild type inferred (Asp303 side chain H-bonds the ligand)
T1 construct: mature protein without 19-residue signal peptide, pET-28a (NcoI/XhoI), His-tag purified, E. coli BL21(DE3) pLysS; homodimer

[2] = target: the molecule itself; test: SEC; analytical gel filtration, HiLoad 16/60 Superdex G200, 10 mM sodium acetate, 150 mM NaCl pH 6, 0.5 ml/min; standards aldolase (158 kDa), conalbumin (75 kDa), ovalbumin (44 kDa)

OC1OC[C@@H](O[C@@H]2OC[C@@H](O[C@@H]3OC[C@@H](O[C@@H]4OC[C@@H](O[C@@H]5OC[C@@H](O[C@@H]6OC[C@@H](O)[C@H](O)[C@H]6O)[C@H](O)[C@H]5O)[C@H](O)[C@H]4O)[C@H](O)[C@H]3O)[C@H](O)[C@H]2O)[C@H](O)[C@H]1O (some centres unmarked) [xylohexaose]
X-ray crystal structure, crystal soaking [1]: five β-1,4-linked D-xylopyranose moieties was observed in the crystal structure of wtsAgu115A soaked with xylohexaose

B1: wtsAgu115A (enzyme)
chain: AGDNKGITYEELNPERFTLLEKGTPTNILIDENEDQGVMIAATNLSEDFGRVSGTNAPLIFLPDNERLIIVGTLESRYIKELTENRKIKGDELKGKNEKYLMTVVDNPLPGVKEALIIAGSDKRGAIYGIYELSEQIGVSPWYDWADVPVKPQQNLSIERGSYTADEPAVTYRGIFLNDEAPALTSWVENTYGTKYGDHRFYSRVFELILRLRGNFLWPAMWDWSFYGDDPLNSKTADTMGIIMGTSHHEPMARNHQEWARNRDKYGVWDYTSNQEVIDQFFREGIERVKDTDDLITIGMRGDGDTPMPMGVKEGEDHLPSDEDNMRLLERIIKNQREIIGDVTGESPEKTPQVWAIYKEVQRYFDLGLRPPEDVIILLSDDNWGNVRRLPTEEERDHPGGWGMYYHFDYVGAPRSSKWLNISPIQNIWEQMQLTYDYGVDELWVANVGDLKPMEYPITLFLDMAWDPTRFNAENLLDHTRSFAAQQFGEDQADEAARIINLYSKYNGRVTPEMLDRNTYNLESGEWKKVSDEYIKLEAEALRQYLTLEPEQRDAYKQLILYPVQAMANLYEMYYSQAMNHKLYRENNPMANYWADRVEETFNRDAELSHDYNKVMANGKWDGMMTQKKIGYRSWNDNFPADTLPQIFRIENPEEATGGYVFTARDGVVVIEAEHYFEAKDAEEAKWTVIPYMGRTLSSIALMPYTKEVEGASLSYRMQIPDEVSEVKVHVVVKSTLPFHDPKGHEYRVGFEGGSKEIVNFNWNLNEEPENIYSVFYPTVASRVVKKDVTLDLHDTDDGFYTLTLEPLDPGIVFQKIVVDFGGYEESRLFMEESPNKRIEIE
stoichiometry N [2]: 2
